Experimental findings from publication PMC10978029 (Virulence, 2024) are described below.

Assay [1] deals with T1, STM0435 (Salmonella enterica, UniProt Q8ZRC9).
T1 sequence (Q8ZRC9 1-163): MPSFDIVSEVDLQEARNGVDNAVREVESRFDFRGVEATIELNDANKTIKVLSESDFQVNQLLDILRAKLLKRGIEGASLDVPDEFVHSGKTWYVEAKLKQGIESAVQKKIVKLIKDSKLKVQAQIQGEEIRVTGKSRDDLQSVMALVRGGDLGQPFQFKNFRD
The assay is described as follows: SPR. It counts as binding.

In assay [2] the target is STM0435 (Salmonella enterica, UniProt Q8ZRC9, D138H/R137H). The assay is described as follows: biochemical.
The target of assay [3] is STM0435 (Salmonella enterica, UniProt Q8ZRC9, D138H/R137H/R33H). The assay is described as follows: biochemical.
Assay [4] addresses STM0435 (Salmonella enterica, UniProt Q8ZRC9, R33H). The assay is described as follows: biochemical.

As a reminder, the Kd is the constant that tells how readily two partners part at equilibrium. Low readings indicate higher affinity, high ones lower affinity. `Nc1nc2c(ncn2[C@@H]2O[C@@H]3CO[P@](=O)(O)O[C@H]4[C@@H](O)[C@H](n5cnc6c(=O)[nH]c(N)nc65)O[C@@H]4CO[P@](=O)(O)O[C@H]3[C@H]2O)c(=O)[nH]1` [c-di-GMP]: the Kd was 8.38 µM on STM0435 [1], 25.3 µM on STM0435 [2], 33.2 µM on STM0435 [3] and 15.2 µM on STM0435 [4].
